Source: patent publication US20110306546A1, “COMPOSITIONS FOR INCREASING HAIR GROWTH AND DECREASING HAIR LOSS” (ALVI ARMANI GENOMICS INC., priority 2010, published 2011)

Tested on: Hair follicles (HF)
Assay: Hair follicle (HF) explant growth assay
Format: cell-based, human
Conditions: HF elongation after 7-8 days; 20 ng/ml of each growth factor, hypoxanthine 2 μM; mean of 6-8 independent experiments
Protocol: Hair follicles (HF) were extracted from the occipital area of 6-8 individuals with hair loss. The HFs were processed to equivalent lengths and cultured in William's E medium supplemented with 100 units/ml penicillin G, 100 μg/ml streptomycin, 0.25 μg/ml amphotericin B, […], 1 ng/ml hydrocortisone; basic medium or control medium or basic medium supplemented with 20 ng/ml of each of IGF-1, FGF-2, PDGF, Wnt-3A (Wnt), Noggin (Nog), Ephrin A3 (Eph), SHH and BMP-6 as well as hypoxanthine (Hyx) at 2 μM final concentration. The “GF10 cocktail” or “GF10” includes all nine growth factors and hypoxanthine while the “GF7 cocktail” or “GF7” contains six growth factors (all growth factors of GF10 except for FGF-10, Eph and SHH) and hypoxanthine. Growth promotion was measured as elongation of the HF at the end of 7-8 days. All growth factors and hypoxanthine promoted growth individually and in combination (FIG. 1 and Table 1).

Molecule | Increase in growth (% control) Mean [% control]
O=c1[nH]cnc2nc[nH]c12 [Hypx, hypoxanthine] | 104.1618
FGF2: fibroblast growth factor-2 | 146.474
IGF1: insulin-like growth factors-1, cellular growth factor | 39.31
PDGF: platelet-derived growth factor-AA | 69.56
